Source: patent US20060018921A1, “Histone deacetylase inhibitors and cognitive applications” (priority 2004, published 2006)
“Also recorded” adds a separate entry of the source.

Legend:
[1] = Contextual fear conditioning, freezing behavior; conditions: MK-801 300 μg/kg 1 h prior to training, vs saline
[2] = tested on: ERK2; experiment: P-ERK2 western blot of area CA1 after contextual fear conditioning; conditions: MK-801 300 μg/kg 1 h prior to training; SL327 100 mg/kg immediately after training
[3] = tested on: histone H3 (Lys14); experiment: Acetylation of histone H3 in area CA1 after contextual fear conditioning; conditions: injection of MK-801 1 h prior to or SL327 immediately after training
[4] = tested on: histone H4 (Lys5/Lys8/Lys12/Lys16); experiment: Acetylation of histone H4 in area CA1 after contextual fear conditioning; conditions: injection of MK-801 1 h prior to or SL327 immediately after training

With `C[C@]12N[C@H](Cc3ccccc31)c1ccccc12` [MK-801] the “freezing behavior 24 h after contextual fear conditioning (contextual fear memory)” value [1] was “blocked; also recorded: less freezing behavior than animals injected with saline”, the “increase in P-ERK2 in area CA1 1 h after fear conditioning” value [2] was “blocked the increase in P-ERK2; also recorded: inhibited the increase in P-ERK2” and the “increase in acetylation of histone H3 in area CA1 1 h after fear conditioning” value [3] was “inhibited the increase in H3 acetylation; also recorded: No change in H3 acetylation”. For the same compound, the “histone H4 acetylation in area CA1 after fear conditioning” value [4] was “no effect on histone H4 acetylation”.
